This passage reports EC50 results from ChEMBL document CHEMBL3994670, “Therapeutic Advantage of the Positive Allosteric Modulators of the GABA-B Receptor” (ACS Med Chem Lett, 2017).

Molecules are shown by their SMILES.

The assay can be described thus: Positive allosteric modulation of GABA-B receptor in rat brain cortex membranes assessed as increase in GABA-induced [35S]GTPgammaS binding after 60 mins by liquid scintillation counting method. It counts as cell membranes.
The EC50 is the concentration that produces a half-maximal response. On to `CC(=O)Nc1cccc(-c2nn(Cc3ccc(Cl)cc3)c(=O)c3c(C(C)C)noc23)c1`, for which the EC50 was 2590 nM.

For `COc1ccc(NC(C)=O)cc1-c1nn([C@@H](C)c2ccc(Cl)cc2)c(=O)c2c(C)noc12`, the EC50 was found to be 43 nM.

Turning to `Cc1noc2c(-c3cncc(F)c3)nn(C(C)c3ccc(Cl)cc3)c(=O)c12` (stereo unspecified), the EC50 was 2690 nM.

As for `CNC(=O)c1ccc(OC)c(-c2nn([C@@H](C)c3ccc(Cl)cc3)c(=O)c3c(C)noc23)c1`, the EC50 was 23 nM.

With `COc1ccc(NC(C)=O)cc1-c1nn([C@@H](C)c2ccc(Cl)cc2)c(=O)c2c(C3CC3)noc12`, the EC50 is 51 nM.

As for `COc1ccc(C(N)=O)cc1-c1nn(C(C)c2ccc(Cl)cc2)c(=O)c2c(C)noc12` (stereo unspecified), the EC50 is 17 nM.
